Calls of active or inactive are those of the source. The calls are words filed in the database; no cut-off is given here.
Tests used:
HeLa [1] = experiment: Photodynamic cytotoxicity against human HeLa cells assessed as inhibition of cell viability incubated for 3 hrs followed by photo-irradiation at 54 J/cm2 measured after 24 hrs by CCK8 assay; format: functional, cell-based; conditions: light or radiation study
B16-F10 = experiment: Photodynamic cytotoxicity against mouse B16-F10 cells assessed as inhibition of cell viability incubated for 3 hrs followed by photo-irradiation at 54 J/cm2 measured after 24 hrs by CCK8 assay; format: functional, cell-based; conditions: B16-F10, light or radiation study
[2] = Drug uptake in human HeLa cells at 5 uM by confocal scanning microscopy; format: ADME, cell-based; conditions: 3 h, TDE = time-dependent effect
[3] = Drug uptake in human HeLa cells at 5 uM incubated for 3 hrs by confocal scanning microscopy; format: ADME, cell-based
[4] = Drug localization in mitochondria of human HeLa cells at 5 uM incubated for 30 mins by MitoTracker Green FM dye based confocal scanning microscopic analysis; format: ADME; conditions: 0.5 h
[5] = Drug localization in lysosome of human HeLa cells at 5 uM incubated for 30 mins by Lyso-tracker Green DND-26 dye based confocal scanning microscopic analysis; format: ADME, subcellular; conditions: 0.5 h
HeLa [6] = experiment: Induction of ROS production in human HeLa cells upto 200 nM preincubated for 2 hrs followed by H2DCFDA probe exposure for 30 mins and subsequent removal of probe with photo-irradiation at 16 J/cm2 by confocal scanning microscopic analysis; format: functional, cell-based; conditions: time 2.5 hrs
HeLa [7] = experiment: Induction of ROS production in human HeLa cells upto 200 nM preincubated for 2 hrs followed by H2DCFDA probe exposure for 30 mins and subsequent removal of probe by confocal scanning microscopic analysis; format: functional, cell-based; conditions: time 2.5 hrs
HeLa [8] = experiment: Induction of apoptosis in human HeLa cells assessed as necrotic cells at 100 nM incubated for 3 hrs by Annexin V-FITC/PI staining based flow cytometry relative to control; format: toxicity, cell-based; conditions: 0.1 µM
HeLa [9] = experiment: Induction of apoptosis in human HeLa cells assessed as late apoptotic cells at 12.5 nM incubated for 3 hrs with photo-irradiation at 54 J/cm2 by Annexin V-FITC/PI staining based flow cytometry relative to control; format: functional
HeLa [10] = experiment: Induction of apoptosis in human HeLa cells assessed as early apoptotic cells at 25 nM incubated for 3 hrs with photo-irradiation at 54 J/cm2 by Annexin V-FITC/PI staining based flow cytometry relative to control; format: functional
HeLa [11] = experiment: Induction of apoptosis in human HeLa cells assessed as late apoptotic cells at 25 nM incubated for 3 hrs with photo-irradiation at 54 J/cm2 by Annexin V-FITC/PI staining based flow cytometry relative to control; format: functional
HeLa [12] = experiment: Induction of apoptosis in human HeLa cells assessed as necrotic cells at 25 nM incubated for 3 hrs with photo-irradiation at 54 J/cm2 by Annexin V-FITC/PI staining based flow cytometry relative to control; format: functional
HeLa [13] = experiment: Induction of apoptosis in human HeLa cells assessed as viable cells at 50 nM incubated for 3 hrs with photo-irradiation at 54 J/cm2 by Annexin V-FITC/PI staining based flow cytometry relative to control; format: functional; conditions: light or radiation study, read-out: Activity
HeLa [14] = experiment: Induction of apoptosis in human HeLa cells assessed as early apoptotic cells at 50 nM incubated for 3 hrs with photo-irradiation at 54 J/cm2 by Annexin V-FITC/PI staining based flow cytometry relative to control; format: functional
HeLa [15] = experiment: Induction of apoptosis in human HeLa cells assessed as late apoptotic cells at 50 nM incubated for 3 hrs with photo-irradiation at 54 J/cm2 by Annexin V-FITC/PI staining based flow cytometry relative to control; format: functional
HeLa [16] = experiment: Induction of apoptosis in human HeLa cells assessed as increase in percentage of apoptosis/necrosis at 12.5 nM incubated for 3 hrs with photo-irradiation at 54 J/cm2 by Annexin V-FITC/PI staining based flow cytometry relative to control; format: functional
HeLa [17] = experiment: Induction of apoptosis in human HeLa cells assessed as increase in percentage of apoptosis/necrosis at 25 nM incubated for 3 hrs with photo-irradiation at 54 J/cm2 by Annexin V-FITC/PI staining based flow cytometry relative to control; format: functional
HeLa [18] = experiment: Induction of apoptosis in human HeLa cells assessed as increase in percentage of apoptosis/necrosis at 100 nM incubated for 3 hrs with photo-irradiation at 54 J/cm2 by Annexin V-FITC/PI staining based flow cytometry relative to control; format: functional
HeLa [19] = experiment: Disruption of lysosomes in human HeLa cells at 100 nM incubated for 3 hrs by AO staining based confocal scanning microscopy; format: functional, cell-based
[20] = Drug distribution in Balb/C nu/nu mouse xenografted with human HeLa cells at 2.5 umol/kg, iv measured for 1 hr by IVIS imaging analysis; format: ADME, organism-based; conditions: in vivo, dose 2.5 µmol/kg
[21] = Drug distribution in lungs of Balb/C nu/nu mouse xenografted with human HeLa cells at 2.5 umol/kg, iv measured for 1 hr by IVIS imaging analysis; format: ADME, organism-based, Lung; conditions: in vivo, dose 2.5 µmol/kg
[22] = Drug distribution in kidneys of Balb/C nu/nu mouse xenografted with human HeLa cells at 2.5 umol/kg, iv measured for 1 hr by IVIS imaging analysis; format: ADME, organism-based, Kidney; conditions: in vivo, dose 2.5 µmol/kg
[23] = Drug distribution in tumor of Balb/C nu/nu mouse xenografted with human HeLa cells at 2.5 umol/kg, iv measured for 1 hr by IVIS imaging analysis; format: ADME, organism-based, Neoplasm; conditions: in vivo, dose 2.5 µmol/kg
[24] = Drug distribution in Balb/C nu/nu mouse xenografted with human HeLa cells at 2.5 umol/kg, iv measured for 24 hr by IVIS imaging analysis; format: ADME, organism-based; conditions: in vivo, dose 2.5 µmol/kg
[25] = Drug distribution in spleen of Balb/C nu/nu mouse xenografted with human HeLa cells at 2.5 umol/kg, iv measured for 24 hr by IVIS imaging analysis; format: ADME, organism-based; conditions: in vivo, dose 2.5 µmol/kg
[26] = Drug distribution in lungs of Balb/C nu/nu mouse xenografted with human HeLa cells at 2.5 umol/kg, iv measured for 24 hr by IVIS imaging analysis; format: ADME, organism-based, Lung; conditions: in vivo, dose 2.5 µmol/kg
[27] = Drug accumulation in tumor of Balb/C nu/nu mouse xenografted with human HeLa cells at 2.5 umol/kg, iv measured for 3 hrs by IVIS imaging analysis; format: ADME, organism-based, Neoplasm; conditions: in vivo, dose 2.5 µmol/kg
HeLa [28] = experiment: Antitumor activity against human HeLa cells xenografted in Balb/C nu/nu mouse assessed as tumor growth inhibition at 2.5 umol/kg, iv with photo-irradiation at 30 J/cm2 after 1 hr of compound administration measured for 24 days; format: functional, organism-based; conditions: dose 2.5 µmol/kg, time 24.0 day
[29] = Toxicity in Balb/C nu/nu mouse xenografted with human HeLa cells assessed as increase in body weight at 2.5 umol/kg, iv with photo-irradiation at 30 J/cm2 after 1 hr of compound administration measured for 24 days; format: organism-based; conditions: in vivo, 576 h, dose 2.5 µmol/kg, time 24 day
[30] = Toxicity in Balb/C nu/nu mouse xenografted with human HeLa cells assessed as change in liver histology at 2.5 umol/kg, iv with photo-irradiation at 30 J/cm2 after 1 hr of compound administration measured after 24 days by H and E staining based analysis; format: organism-based; conditions: in vivo, 576 h, dose 2.5 µmol/kg, time 24 day
[31] = Toxicity in Balb/C nu/nu mouse xenografted with human HeLa cells assessed as change in lung histology at 2.5 umol/kg, iv with photo-irradiation at 30 J/cm2 after 1 hr of compound administration measured after 24 days by H and E staining based analysis; format: organism-based; conditions: in vivo, 576 h, dose 2.5 µmol/kg, time 24 day

COc1ccc2c(c1)CCc1c(-c3ccccc3)c3n(c1-2)[B-](F)(F)[N+]1=C(c2ccc(OCC(=O)NCCCN4CCOCC4)cc2)C(I)=C(c2ccccc2)C1=N3
IC50 (HeLa [1]): 2.1 nM | IC50 (B16-F10): 7.2 nM | Drug uptake [2]: Tde | Drug uptake [3]: Active | Drug uptake [4]: Not Active | Drug uptake [5]: Active | Activity (HeLa [6]): Active | Activity (HeLa [7]): inactive | Activity (HeLa [8]): 1.04% | Activity (HeLa [9]): 5.57% | Activity (HeLa [10]): 36.45% | Activity (HeLa [11]): 12.87% | Activity (HeLa [12]): 3.67% | viability at 0.05 µM (HeLa [13]): 25.4% | Activity (HeLa [14]): 58.93% | Activity (HeLa [15]): 13.58% | Activity (HeLa [16]): 10.9% | Activity (HeLa [17]): 13.1% | Activity (HeLa [18]): 64.6% | Activity (HeLa [19]): inactive | Drug uptake [20]: Active | Drug uptake [21]: Active | Drug uptake [22]: Active | Drug uptake [23]: Active | Drug uptake [24]: Not Active | Drug uptake [25]: Not Active | Drug uptake [26]: Not Active | Drug uptake [27]: Active | Activity (HeLa [28]): Active | Activity [29]: Non-Toxic | Activity [30]: Non-Toxic | Activity [31]: Non-Toxic

— ChEMBL document CHEMBL5338790, “Discovery of Subcellular-Targeted Aza-BODIPY Photosensitizers for Efficient Photodynamic Antitumor Therapy” (J Med Chem, 2023)
